Test results published in patent publication US9682056B2, “Oleacein for treating or preventing diseases resulting from atherosclerotic plaques” (Warszawski Uniwersytet Medyczny, priority 2012, dated 2017).

Key:
[1] = tested on: interleukin 10 (IL-10) production; test: IL-10 production by atherosclerotic plaque, ELISA; format: cell-based, human; conditions: IL-10 amount per atherosclerotic plaque mass, % of stimulated control
Description: The effects of olacein on interleukin 10 (IL-10) production were investigated with the use of the ELISA immunochemical method (R&D system). The IL-10 amounts were converted into the atherosclerotic plaque mass and, subsequently, determined in % compared to the stimulated control.

[2] = tested on: metalloproteinase-9 (MMP-9) production; test: MMP-9 production by LPS-stimulated atherosclerotic plaque from carotid artery, ELISA; format: cell-based; conditions: Homo sapiens; plaques (n=15) from endoartherectomy patients; LPS 1 μg/ml stimulation; 24 hours at 37° C.; average±standard error; read-out: IC50, inhibition of MMP-9 production
Method: Atherosclerotic plaques (n=15) were obtained from patients subjected to endoartherectomy. The plaque obtained was divided into two portions, which were then incubated in buffered physiological saline (control), or buffered physiological saline in the presence of oleacein at the concentrations of 5, 10 and 20 μM for 24 hours at a temperature of 37° C. following prior stimulation with a solution of lipopolysaccharide at a concentration of 1 μg/ml. The unstimulated control consisted of physiological saline, in which the plaque was incubated for […]. The effect of oleacein on metalloproteinase-9 (MMP-9) production was determined using immunochemical ELISA (R&D System). The amount of MMP-9 (ng/ml) was calculated per mass of atherosclerotic plaque, and then described in terms of percentage in comparison to the stimulated control.

IC50 [2]: 9.07 ± 1.2 µM
SMILES: C/C=C(/C=O)[C@@H](CC=O)CC(=O)OCCc1ccc(O)c(O)c1 [oleacein]
IL-10 production compared to the stimulated control [1]: about 267.1±61.5%
